Measurements taken from the NIST ThermoML archive (doi:10.1007/s10765-006-0045-2).
Where “and” joins values, the source holds several entries; their conditions need not be identical. Identical values can stand only once.

Columns and labels:
[1] = 101.33 kPa, Crystal; for thermal diffusivity: laser flash method
[2] = molar heat capacity at constant pressure; settings: 101.33 kPa, Resistive pulse heating

[Hf] [hafnium]
[1]
Settings	thermal diffusivity
285 K	1.36e-05 m2/s
293 K	1.38e-05 m2/s
321 K	1.32e-05 m2/s
326 K	1.31e-05 m2/s
375 K	1.24e-05 m2/s
386 K	1.22e-05 m2/s
423 K	1.19e-05 m2/s
433 K	1.17e-05 m2/s
459 K	1.15e-05 m2/s
492 K	1.12e-05 m2/s
521 K	1.08e-05 m2/s
530 K	1.08e-05 m2/s
568 K	1.05e-05 m2/s
579 K	1.06e-05 m2/s
615 K	1.02e-05 m2/s
618 K	1.04e-05 m2/s
664 K	1e-05 m2/s and 1.02e-05 m2/s
714 K	9.91e-06 m2/s
715 K	9.92e-06 m2/s
760 K	9.79e-06 m2/s
767 K	9.72e-06 m2/s
817 K	9.57e-06 m2/s
825 K	9.67e-06 m2/s
862 K	9.46e-06 m2/s
874 K	9.59e-06 m2/s
914 K	9.36e-06 m2/s
919 K	9.54e-06 m2/s
962 K	9.32e-06 m2/s
965 K	9.54e-06 m2/s
1012 K	9.29e-06 m2/s
1017 K	9.54e-06 m2/s
1065 K	9.26e-06 m2/s and 9.53e-06 m2/s
1113 K	9.27e-06 m2/s
1118 K	9.59e-06 m2/s
1162 K	9.4e-06 m2/s
1174 K	9.6e-06 m2/s
1215 K	9.45e-06 m2/s
1222 K	9.65e-06 m2/s
1262 K	9.43e-06 m2/s
1277 K	9.81e-06 m2/s
1314 K	9.5e-06 m2/s
1332 K	9.85e-06 m2/s
1362 K	9.7e-06 m2/s
1370 K	1e-05 m2/s
1417 K	9.96e-06 m2/s
1430 K	1.02e-05 m2/s
1463 K	1e-05 m2/s
1472 K	1.05e-05 m2/s

Settings	mass density	molar heat capacity at constant pressure
[1], 298.1 K, mass over volume	13222 kg/m3 [middle of 5 runs]	–
[2], 294 K, Crystal 2	–	25.61 J/K/mol and 25.77 J/K/mol
[2], 321 K, Crystal 2	–	25.86 J/K/mol and 26.01 J/K/mol
[2], 372 K, Crystal 2	–	26.33 J/K/mol and 26.38 J/K/mol
[2], 421 K, Crystal 2	–	26.77 J/K/mol and 26.7 J/K/mol
[2], 471 K, Crystal 2	–	27.22 J/K/mol and 27.1 J/K/mol
[2], 522 K, Crystal 2	–	27.67 J/K/mol and 27.49 J/K/mol
[2], 571 K, Crystal 2	–	28.09 J/K/mol and 27.88 J/K/mol
[2], 622 K, Crystal 2	–	28.52 J/K/mol and 28.29 J/K/mol
[2], 671 K, Crystal 2	–	28.93 J/K/mol and 28.67 J/K/mol
[2], 721 K, Crystal 2	–	29.36 J/K/mol and 29.04 J/K/mol
[2], 771 K, Crystal 2	–	29.77 J/K/mol and 29.47 J/K/mol
[2], 821 K, Crystal 2	–	30.17 J/K/mol and 29.95 J/K/mol
[2], 871 K, Crystal 2	–	30.56 J/K/mol and 30.4 J/K/mol
[2], 921 K, Crystal 2	–	30.95 J/K/mol and 30.84 J/K/mol
[2], 971 K, Crystal 2	–	31.34 J/K/mol and 31.25 J/K/mol
[2], 1021 K, Crystal 2	–	31.72 J/K/mol and 31.7 J/K/mol
[2], 1071 K, Crystal 2	–	32.08 J/K/mol and 32.11 J/K/mol
[2], 1121 K, Crystal 2	–	32.45 J/K/mol and 32.49 J/K/mol
[2], 1171 K, Crystal 2	–	32.84 J/K/mol and 32.93 J/K/mol
[2], 1221 K, Crystal 2	–	33.2 J/K/mol and 33.34 J/K/mol
[2], 1271 K, Crystal 2	–	33.54 J/K/mol and 33.73 J/K/mol
[2], 1321 K, Crystal 2	–	33.88 J/K/mol and 34.13 J/K/mol
[2], 1371 K, Crystal 2	–	34.2 J/K/mol and 34.52 J/K/mol
[2], 1421 K, Crystal 2	–	34.52 J/K/mol and 34.91 J/K/mol
[2], 1471 K, Crystal 2	–	34.84 J/K/mol and 35.25 J/K/mol
[2], 1521 K, Crystal 2	–	35.15 J/K/mol and 35.68 J/K/mol
[2], 1571 K, Crystal 2	–	35.45 J/K/mol and 36.06 J/K/mol
[2], 1621 K, Crystal 2	–	35.73 J/K/mol and 36.38 J/K/mol
[2], 1671 K, Crystal 2	–	36.02 J/K/mol and 36.7 J/K/mol
[2], 1721 K, Crystal 2	–	36.31 J/K/mol and 37.13 J/K/mol
[2], 1771 K, Crystal 2	–	36.57 J/K/mol and 37.48 J/K/mol
[2], 1821 K, Crystal 2	–	36.84 J/K/mol and 37.88 J/K/mol
[2], 1871 K, Crystal 2	–	37.09 J/K/mol and 38.29 J/K/mol
[2], 1921 K, Crystal 2	–	37.34 J/K/mol and 38.64 J/K/mol
[2], 1971 K, Crystal 2	–	37.59 J/K/mol and 40.2 J/K/mol
[2], 1983 K, Crystal 2	–	39.18 J/K/mol
[2], 2121 K, Crystal 1	–	34.13 J/K/mol and 34.29 J/K/mol
[2], 2171 K, Crystal 1	–	34.18 J/K/mol and 34.29 J/K/mol
[2], 2222 K, Crystal 1	–	34.23 J/K/mol and 34.29 J/K/mol
[2], 2272 K, Crystal 1	–	34.29 J/K/mol
[2], 2321 K, Crystal 1	–	34.41 J/K/mol
[2], 2336 K, Crystal 1	–	34.5 J/K/mol
